Reference: US20220133740A1, “VALPROIC ACID COMPOUNDS AND WNT AGONISTS FOR TREATING EAR DISORDERS” (Frequency Therapeutics, Inc., priority 2019, published 2022)
“Also recorded” adds a separate entry of the source. Read-outs that look alike come from different tables or passages of the source. Values belong to the compound of their own block, whether it stands above or below them.

Legend:
GSK3-alpha [1] = target: T1, GSK3-alpha (Homo sapiens, UniProt P49840); conditions: cited from earlier work; for GSK-3 alpha: Table 5
Lgr5+ cells = experiment: Lgr5+ Assay; format: cell-based; conditions: Table 5
GSK3-beta = GSK3-beta (Homo sapiens, UniProt P49841); conditions: cited from earlier work
GSK3-alpha [2] = target: T1, GSK3-alpha; experiment: GSK3-alpha inhibitor potency (Tables 2 and 5); format: biochemical
[3] = Perilymph valproic acid along the cochlea (sequential apical sampling) after systemic sodium valproate; format: in vivo; conditions: guinea pig, perilymph at 3 hours, therapeutic level as determined in vitro on primary cochlear Lgr5 cells
[4] = Blood/plasma valproic acid levels after intravenous sodium valproate; format: in vivo; conditions: guinea pig, i.v. 100 mg/mL sodium valproate at 20 μL/min for 60 minutes (120 mg, about 330 mg/kg); FIG. 2A
[5] = Perilymph valproic acid after systemic plus local administration versus local-only administration; format: in vivo; conditions: guinea pig, i.v. 25 mg/mL sodium valproate plus 20 μL poloxamer formulation (sodium valproate 88.63 mg/mL, CHIR99021 3.14 mg/mL) at round window niche, perilymph at 3 hours; FIG. 4

T1 sequence (P49840 whole entry): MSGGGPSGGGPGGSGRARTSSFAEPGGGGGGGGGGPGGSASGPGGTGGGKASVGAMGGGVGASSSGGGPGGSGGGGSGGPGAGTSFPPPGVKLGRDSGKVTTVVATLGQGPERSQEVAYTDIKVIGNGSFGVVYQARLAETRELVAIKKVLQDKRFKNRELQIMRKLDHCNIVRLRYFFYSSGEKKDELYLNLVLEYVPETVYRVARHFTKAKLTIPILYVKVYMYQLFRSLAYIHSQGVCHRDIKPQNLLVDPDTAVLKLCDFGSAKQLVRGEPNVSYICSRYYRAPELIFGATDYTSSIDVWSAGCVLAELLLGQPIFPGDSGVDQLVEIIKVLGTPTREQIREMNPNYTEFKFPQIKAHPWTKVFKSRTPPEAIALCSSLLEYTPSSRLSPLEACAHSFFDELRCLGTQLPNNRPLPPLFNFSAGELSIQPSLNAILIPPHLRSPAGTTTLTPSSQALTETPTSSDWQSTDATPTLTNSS
Chain of GSK3-beta (P49841 whole entry): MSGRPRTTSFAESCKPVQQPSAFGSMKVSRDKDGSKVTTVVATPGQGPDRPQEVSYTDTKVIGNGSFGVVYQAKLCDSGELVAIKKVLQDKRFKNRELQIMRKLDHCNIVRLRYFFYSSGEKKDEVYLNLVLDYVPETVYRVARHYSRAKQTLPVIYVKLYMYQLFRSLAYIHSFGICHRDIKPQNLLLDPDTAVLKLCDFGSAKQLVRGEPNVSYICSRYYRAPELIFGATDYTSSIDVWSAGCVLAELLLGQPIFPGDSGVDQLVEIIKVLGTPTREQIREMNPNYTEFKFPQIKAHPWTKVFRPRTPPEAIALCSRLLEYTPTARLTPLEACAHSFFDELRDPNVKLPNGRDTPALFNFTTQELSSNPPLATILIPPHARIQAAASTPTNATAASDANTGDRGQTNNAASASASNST

Compound: N#Cc1ccc2c(c1)/C(=C1\C=CC(CN3CCOCC3)=CN1)C(=O)N2 [AZD1080, (Z)-3-(5-(morpholinomethyl)pyridin-2(1H)-ylidene)-2-oxoindoline-5-carbonitrile]
Potency (nM) GSK3-alpha (GSK3-alpha [1]; Table 2): 6.9 nM | GSK-3 alpha (GSK3-alpha [1]): 6.9 nM | Lgr5 + Assay (Lgr5+ cells): 1 to 5 µM

Compound: COc1ccccc1[C@@H]1C2=C(CC(C)(C)CC2=O)N=C2NNC(C(F)(F)F)=C21 [BRD1172, (R)-4-(2-methoxyphenyl)-7,7-dimethyl-3-(trifluoromethyl)-1,2,4,6,7,8-hexahydro-5H-pyrazolo[3,4-b]quinolin-5-one]
Potency (nM) GSK3-alpha (GSK3-alpha [1]): 3 nM | Potency (nM) GSK3-beta (GSK3-beta): 10 nM | Ratio of alpha to beta (GSK3-alpha [2]): 3.3

Compound: CC1(C)CC(=O)C2=C(C1)Nc1n[nH]c(C(F)(F)F)c1[C@]2(C)c1ccccc1 [BRD1652, N-4,7,7-trimethyl-4-phenyl-3-(trifluoromethyl)-2,4,6,7,8,9-hexahydro-5H-pyrazolo[3,4-b]quinolin-5-one]
Potency (nM) GSK3-alpha (GSK3-alpha [1]; Table 2): 0.4 nM | Potency (nM) GSK3-beta (GSK3-beta; Table 2): 4 nM

Compound: Cc1cnc(-c2cnc(NCCNc3ccc(C#N)cn3)nc2-c2ccc(Cl)cc2Cl)[nH]1 [CHIR99021, 6-[[2-[[4-(2,4-dichlorophenyl)-5-(5-methyl-1H-imidazol-2-yl)-2-pyrimidinyl]amino]ethyl]amino]-3-pyridinecarbonitrile]
Lgr5 + Assay (Lgr5+ cells): 2 to 6 µM

Compound: Cn1cc(C2=C(c3cccc(N)c3)C(=O)NC2=O)c2ccccc21 [Compound 3, 3-(3-aminophenyl)-4-(1-methyl-1H-indol-3-yl)-1H-pyrrole-2,5-dione]
Potency (nM) GSK3-alpha (GSK3-alpha [1]; Table 2): 3 nM | Potency (nM) GSK3-beta (GSK3-beta; Table 2): 10 nM

Compound: CO[C@H]1CC[C@H](NC(=O)c2n[nH]cc2NC(=O)C2CCC(F)(F)CC2)CC1 [Compound 4a, 4-(4,4-difluorocyclohexane-1-carboxamido)-N-((1r,4r)-4-metboxycyclohexyl)-1H-pyrazole-3-carboxamide]
Potency (nM) GSK3-beta (GSK3-beta; Table 2): 8 nM

Compound: CO[C@H]1CC[C@H](NC(=O)c2n[nH]cc2NC(=O)c2ccc(N3CCN(C)CC3)cc2)CC1 [Compound 4t, N-((1r,4r)-4-methoxycyclohexyl)-4-(4-(4-methylpiperazin-1-yl)benzamido)-1H-pyrazole-3-carboxamide]
Potency (nM) GSK3-beta (GSK3-beta; Table 2): <5 nM

Compound: CO[C@H]1CC[C@H](NC(=O)c2n[nH]cc2NC(=O)c2ncoc2-c2ccccc2)CC1 [Compound 4z, N-(3-(((1r,4r)-4-methoxycyclohexyl)carbamoyl)-1H-pyrazol-4-yl)-5-phenyloxazole-4-carboxamide]
Potency (nM) GSK3-beta (GSK3-beta; Table 2): 5 nM

Compound: Cc1[nH]nc2c1C(c1cccc(F)c1)C1=C(CC(C)(C)CC1=O)N2 (stereo not drawn) [Compound 9, 4-(3-fluorophenyl)-3,7,7-trimethyl-2,4,6,7,8,9-hexahydro-5H-pyrazolo[3,4-b]quinolin-5-one]
Potency (nM) GSK3-alpha (GSK3-alpha [1]; Table 2): 62 nM | Potency (nM) GSK3-beta (GSK3-beta; Table 2): 156 nM

Compound: Cc1ccccc1C1C2=C(CC(C)(C)CC2=O)Nc2n[nH]c(C)c21 (stereo not drawn) [Compound 11, 3,7,7-trimethyl-4-(o-tolyl)-2,4,6,7,8,9-hexahydro-5H-pyrazolo[3,4-b]quinolin-5-one]
Potency (nM) GSK3-alpha (GSK3-alpha [1]; Table 2): 32 nM | Potency (nM) GSK3-beta (GSK3-beta; Table 2): 102 nM

Compound: Cc1[nH]nc2c1[C@](C)(c1ccccc1)C1=C(CC(C)(C)CC1=O)N2 [Compound 16, (S)-3,4,7,7-tetramethyl-4-phenyl-2,4,6,7,8,9-hexahydro-5H-pyrazolo[3,4-b]quinolin-5-one]
Potency (nM) GSK3-alpha (GSK3-alpha [1]; Table 2): 8 nM | Potency (nM) GSK3-beta (GSK3-beta; Table 2): 26 nM

Compound: COc1ccc(-c2cnc3[nH]cc(/C=C/C(=O)NCc4ccncc4)cc2-3)cc1 [Compound 27, (E)-3-(3-(4-methoxyphenyl)-7H-pyrrolo[2,3-b]pyridin-5-yl)-N-(pyridin-4-ylmethyl)acrylamide]
Potency (nM) GSK3-alpha (GSK3-alpha [1]; Table 2): 42 nM | Potency (nM) GSK3-beta (GSK3-beta; Table 2): 140 nM

Compound: c1ccc(Nc2ncc3nnn(-c4ccccc4)c3n2)cc1 [Compound 90, N,3-diphenyl-3H-[1,2,3]triazolo[4,5-d]pyrimidin-5-amine]
Potency (nM) GSK3-alpha (GSK3-alpha [1]; Table 2): 330 nM | Potency (nM) GSK3-beta (GSK3-beta; Table 2): 628 nM

Compound: O=C(O)COc1ccc(Nc2ncc3nnn(-c4ccccc4)c3n2)cc1 [Compound 92, 2-(4-((3-phenyl-3H-[1,2,3]triazolo[4,5-d]pyrimidin-5-yl)amino)phenoxy)acetic acid]
Potency (nM) GSK3-alpha (GSK3-alpha [1]; Table 2): 9 nM | Potency (nM) GSK3-beta (GSK3-beta; Table 2): 13 nM

Compound: Cc1ccc(C(=O)Nc2c[nH]nc2C(=O)NCCCOC(C)C)cn1 [GSK-3 Inhibitor XXII, 6-methyl-N-[3-[[3-(1-methylethoxy)propyl]carbamoyl]-1H-pyrazol-4-yl]pyridine-3-carboxamide]
Potency (nM) GSK3-alpha (GSK3-alpha [1]; Table 2): 2.3 nM | GSK-3 alpha (GSK3-alpha [1]): 2.3 nM | Lgr5 + Assay (Lgr5+ cells): 0.2 to 1 µM

Compound: O=C1NC(=O)C(c2cnc3ccccn23)=C1c1cn2c3c(cc(F)cc13)CN(C(=O)N1CCCCC1)CC2 [LY2090314, 3-(9-fluoro-2-(piperidine-1-carbonyl)-1,2,3,4-tetrahydro-[1,4]diazepino[6,7,1-hi]indol-7-yl)-4-(imidazo[1,2-a]pyridin-3-yl)-1H-pyrrole-2,5-dione]
GSK-3 alpha (GSK3-alpha [1]): 2.1 nM | GSK3-beta potency (GSK3-beta; Table 5): 0.9 nM | Lgr5 + Assay (Lgr5+ cells): 0.005 to 0.02 µM

distribution and level of valproate in cochlear perilymph ([3]; i.v. 25 mg/mL sodium valproate at 20 μL/min for 60 min (about 26 mg valproate)): did not achieve therapeutic levels | time at which plasma levels peaked [4]: ≤ 1 h
Compound: CCCC(CCC)C(=O)[O-].[Na+] [Sodium Valproate, sodium 2-propylpentanoate]
distribution and level of valproate in cochlear perilymph (apex to base, serial samples 1-4) ([3]; i.v. 100 mg/mL sodium valproate at 20 μL/min for 60 min): Uniform distribution of valproate was observed throughout the cochlea at 3 hours; also recorded: uniform distribution and therapeutic levels

Compound: O=C1NC(=O)[C@@H](c2cn3c4c(cccc24)CCC3)[C@@H]1c1c[nH]c2ccccc12 [Tivantinib, (3R,4R)-3-(5,6-dihydro-4H-pyrrolo[3,2,1-ij]quinolin-1-yl)-4-(1H-indol-3-yl)pyrrolidine-2,5-dione]
Potency (nM) GSK3-alpha (GSK3-alpha [1]; Table 2): 659 nM | Potency (nM) GSK3-beta (GSK3-beta; Table 2): 1865 nM

Compound: CCCC(CCC)C(=O)O [Valproic Acid, 2-propyl pentanoic acid]
perilymph valproic acid distribution and retention, systemic plus local versus local-only administration [5]: improved the drug distribution and retention in guinea pig cochlea

Compound: (3-aminopyrido[2,3-a]pyrrolo[3,4-c]carbazole-5,7(1H,6H)-dionato-κN^1,κN^12)carbonylchloro(2-pyridinemethanamine-κN^1,κN^2)-, (OC-6-24-A)-Ruthenium [lambda-OS1]
Potency (nM) GSK3-alpha (GSK3-alpha [1]; Table 2): 0.9 nM | Potency (nM) GSK3-beta (GSK3-beta; Table 2): 6 nM

Compound: carbonyl(η^5-2,4-cyclopentadien-1-yl)(9-hydroxypyrido[2,3-a]pyrrolo[3,4-c]carbazole-5,7(1H,6H)-dionato-κN^1,κN^12)-Ruthenium [(R)-DW12]
Potency (nM) GSK3-alpha (GSK3-alpha [1]; Table 2): 0.5 nM | Potency (nM) GSK3-beta (GSK3-beta; Table 2): 1 nM
